Results published in patent publication US10081609B2, “Compounds for inducing proliferation and differentiation of cells, and methods of use thereof” (The Broad Institute, Inc., priority 2013, dated 2018).

Tested on: iHeps
Test: Gene expression profiles of treated iHeps (Luminex)
Assay type: cell-based, human
Experimental: Cells were lysed using RLT buffer (Qiagen) or Trizol (Invitrogen) and purified using the Mini-RNeasy kit (Qiagen). Gene expression was determined using Luminex analysis, as previously described. Briefly, total RNA was immobilized on a Qiagen turbo capture 384-well plate, and reverse-transcribed using oligodT priming A biotinylated FlexMap tag sequence unique to each gene of interest and a phosphorylated downstream probe were then added to resulting cDNAs to generate biotinylated FlexMap-tagged amplicons. Universal PCR was then performed for 35 cycles using a biotinylated T7 forward primer and T3 reverse primer in buffer with dNTPs and Taq polymerase. FlexMap microsphere beads conjugated with antitag oligonucleotides were then added and allowed to hybridize. Amplicons were captured by streptavidin-phyoerythrin, and 100 events per bead were analyzed for internal bead color and phyoerythrin reporter fluorescence on a Luminex FlexMap 3D analyzer. Data for replicate loadings, expressed in mean fluorescent intensity of at least 100 beads per sample, were scaled to the human transferrin gene and row-normalized for heat map representation using GeneE open software (Broad Institute).
The ability of compounds of the invention to affect the differentiation and maturation of iHeps was tested. Undifferentiated iPS cells were cultured on Matrigel, supported by primary mouse embryonic fibroblasts. Once confluent, iPS cells were transitioned to differentiation media, with sequential addition of growth factors (Activin A, BMP-4, bFGF, HGF, and OSM) to guide differentiation, first into endoderm, then into hepatic progenitor cells and finally into iHeps. Compound treatment started on day 21 post initiation of differentiation and acted over a period of 9 days. FH1 and FPH2 were used to treat iHeps. FH1 doubled albumin secretion during primary screening (FIG. 4A left) in a dose-responsive manner (FIG. 4A right).
Euclidian clustering analyses groups untreated cells with fetal hepatocytes and treated cells with mature hepatocytes (FIG. 4C left). Of particular interest are ABC transporters, CYP3A4 and GSTP1 expression levels. ABC transporters are known to mature after birth. ABCB11, also known as bile-salt export pump (BSEP), increased ˜3 fold and ˜4 fold in expression levels with FPH2 and FH1 treatment, respectively, compared to untreated iHeps. In contrast, GSTP1 expression, whose levels decrease with maturity, remained low upon FPH2 and FH1 treatment compared to untreated iHeps (FIG. 4C right).

For `Cc1ccc(Cl)cc1N(CC(=O)Nc1c(F)cccc1F)S(C)(=O)=O` [FPH2, 2-(N-(5-chloro-2-methylphenyl)methylsulfonamido)-N-(2,6-difluorophenyl)acetamide], the “ABCB11 (BSEP) expression level increase compared to untreated iHeps” value was roughly 3 fold and the “GSTP1 expression compared to untreated iHeps” value was “remained low”.
